In patent US8008506B2, “Indazole compounds” (priority 2008, dated 2011) one finds solubility data, which are given here for five compounds.

Values after ≈ are worked out from the molar mass of the structure shown.

This series in a line: Test Example 11: solubility in hydrochloric acid buffer solution at pH 1.2. The note with it: simulated gastric fluid, thermodynamic from solid; hydrochloric acid buffer solution at pH 1.2, 37° C., one hour, 1 mg/mL nominal. The format is physicochemical. The protocol: Test on Solubility in Hydrochloric Acid Buffer Solution at pH 1.2
A test compound is precisely weighed to 500 μg, and a hydrochloric acid buffer solution at pH 1.2 is added thereto to a concentration of 1 mg/mL. The solution is shaken at 37° C. for one hour. After the shaking, the entire amount of the solution is transferred into a filter tube, and the solution is filtered by centrifugation. The filtrate is analyzed by HPLC, and the solubility of the test compound is determined by dividing the peak area value of the filtrate by the peak area value of the standard solution.
The standard solution is prepared by precisely weighing 500 μg of the test compound, and dissolving the test compound in DMSO to a concentration of 1 mg/mL.
YMC-Pack C18 (4.6 mm×150 mm) (manufactured by YMC Co., Ltd.) is used as a separating column. The detection is performed with UV-254 nm. Elution is carried out at a flow rate of 1 ml/min, using solution A=water [containing 0.1% (v/v) acetic acid] and solution B=acetonitrile as the solvents, under the conditions in which a linear gradient of the solution B is run from 5 to 98% (v/v) from zero minute to 20 minute, subsequently solution B is eluted at 98% up to 25 minute, and the solution B is eluted at 5% from 25.01 minute to […].
Consider `CCc1n[nH]c2cc(OCCNC[C@H](O)c3cccc(NS(C)(=O)=O)c3)ccc12` [Example 2, (R)-N-(3-(1-hydroxy-2-(2-(3-ethylindazol-6-yloxy)ethylamino)ethyl)phenyl)methanesulfonamide], for which the solubility at 1 h is at least 1000 µg/mL. The same measure for `COCc1n[nH]c2cc(OCCNC[C@H](O)c3cccc(NS(C)(=O)=O)c3)ccc12` [Example 6, (R)-N-(3-(1-hydroxy-2-(2-(3-methoxymethylindazol-6-yloxy)ethylamino)ethyl)phenyl)methanesulfonamide]: at least 1000 µg/mL; for `CC(C)c1n[nH]c2cc(OCCNC[C@H](O)c3cccc(NS(C)(=O)=O)c3)ccc12` [Example 1, (R)-N-(3-(1-hydroxy-2-(2-(3-isopropylindazol-6-yloxy)ethylamino)ethyl)phenyl)methanesulfonamide]: at least 1000 µg/mL; for `CS(=O)(=O)Nc1cccc([C@@H](O)CNCCOc2ccc3c(C(F)(F)F)n[nH]c3c2)c1` [Example 4, (R)-N-(3-(1-hydroxy-2-(2-(3-trifluoromethylindazol-6-yloxy)ethylamino)ethyl)phenyl)methanesulfonamide]: 963 µg/mL (≈ 2100 µM). As for `CN(C)C(=O)CCc1n[nH]c2cc(OCCNC[C@H](O)c3cccc(NS(C)(=O)=O)c3)ccc12` [Example 5, (R)-3-(6-(2-(2-hydroxy-2-(3-(methylsulfonamido)phenyl)ethylamino)ethoxy)-indazol-3-yl)-N,N-dimethylpropanamide], the solubility at 1 h is at least 1000 µg/mL.
